Test results: ChEMBL document CHEMBL4418308, “cGAS ANTAGONIST COMPOUNDS” (2017)

Legend:
Cyclic GMP-AMP synthase [1] = target: T1, Cyclic GMP-AMP synthase (Homo sapiens, UniProt Q8N884); assay: Inhibition of recombinant His6-SUMO tagged human CGAS expressed in Escherichia coli BL21/pLys cells incubated for 20 mins by Kinase Glo chemiluminescence assay
Cyclic GMP-AMP synthase [2] = target: T1, Cyclic GMP-AMP synthase; assay: Inhibition of CGAS in human THP1 cells transfected with interferon stimulatory DNA and measured after 16 hrs by Gaussia luciferase reporter gene assay; assay type: cell-based
Cyclic GMP-AMP synthase [3] = target: T1, Cyclic GMP-AMP synthase; assay: Inhibition of CGAS in human THP1 cells transfected with mock Sendai virus and measured after 16 hrs by Gaussia luciferase reporter gene assay; assay type: cell-based

T1 sequence (Q8N884 whole entry): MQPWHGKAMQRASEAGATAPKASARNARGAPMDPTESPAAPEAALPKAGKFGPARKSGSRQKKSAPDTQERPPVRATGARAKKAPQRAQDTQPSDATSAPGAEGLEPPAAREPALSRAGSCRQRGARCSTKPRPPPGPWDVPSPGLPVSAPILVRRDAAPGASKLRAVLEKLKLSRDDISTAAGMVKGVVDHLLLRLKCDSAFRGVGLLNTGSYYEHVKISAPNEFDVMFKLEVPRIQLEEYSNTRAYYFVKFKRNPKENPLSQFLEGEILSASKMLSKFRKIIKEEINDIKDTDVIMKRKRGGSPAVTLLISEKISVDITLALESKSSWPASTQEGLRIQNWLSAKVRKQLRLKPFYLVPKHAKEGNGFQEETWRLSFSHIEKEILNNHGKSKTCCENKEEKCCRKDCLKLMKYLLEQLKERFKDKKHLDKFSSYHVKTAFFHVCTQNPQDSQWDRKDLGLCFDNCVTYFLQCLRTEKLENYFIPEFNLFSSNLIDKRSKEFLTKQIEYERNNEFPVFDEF

Structure (SMILES): CN1C(=O)S/C(=C\c2cc(OCc3ccc(N)nc3)c(O)cc2Br)C1=O
- IC50 (Cyclic GMP-AMP synthase [1]): ≥ 10 µM
- IC50 (Cyclic GMP-AMP synthase [2]): 2.5 to 10 µM
- IC50 (Cyclic GMP-AMP synthase [3]): 2.5 to 10 µM

Structure (SMILES): CNc1ncc(COc2cc(/C=C3\SC(=O)N(C)C3=O)c(Br)cc2O)cn1
- IC50 (Cyclic GMP-AMP synthase [1]): ≤ 0.5 µM
- IC50 (Cyclic GMP-AMP synthase [2]): ≤ 2.5 µM
- IC50 (Cyclic GMP-AMP synthase [3]): ≥ 10 µM

Structure (SMILES): CC(Oc1cc(/C=C2\SC(=O)N(C)C2=O)c(Br)cc1O)c1cncnc1N (stereo not given)
- IC50 (Cyclic GMP-AMP synthase [1]): ≤ 0.5 µM
- IC50 (Cyclic GMP-AMP synthase [2]): 2.5 to 10 µM
- IC50 (Cyclic GMP-AMP synthase [3]): ≥ 10 µM

Structure (SMILES): CC(Oc1cc(/C=C2\SC(=O)N(C)C2=O)c(Br)c(F)c1O)C(O)c1cnc(N)nc1 (stereo not given)
- IC50 (Cyclic GMP-AMP synthase [1]): ≤ 0.5 µM
- IC50 (Cyclic GMP-AMP synthase [2]): ≥ 10 µM
- IC50 (Cyclic GMP-AMP synthase [3]): ≥ 10 µM

Structure (SMILES): COc1cc(/C=C2\SC(=O)N(C)C2=O)c(Br)c(F)c1O
- IC50 (Cyclic GMP-AMP synthase [1]): ≤ 0.5 µM
- IC50 (Cyclic GMP-AMP synthase [2]): 2.5 to 10 µM
- IC50 (Cyclic GMP-AMP synthase [3]): ≥ 10 µM

Structure (SMILES): CN1C(=O)S/C(=C\c2cc(OCc3ccnc4[nH]cnc34)c(O)cc2Br)C1=O
- IC50 (Cyclic GMP-AMP synthase [1]): ≤ 0.5 µM
- IC50 (Cyclic GMP-AMP synthase [2]): ≤ 2.5 µM
- IC50 (Cyclic GMP-AMP synthase [3]): ≥ 10 µM

Structure (SMILES): Cc1nc(N)ncc1COc1cc(/C=C2\SC(=O)N(C)C2=O)c(Br)c(F)c1O
- IC50 (Cyclic GMP-AMP synthase [1]): ≤ 0.5 µM
- IC50 (Cyclic GMP-AMP synthase [2]): ≤ 2.5 µM
- IC50 (Cyclic GMP-AMP synthase [3]): ≥ 10 µM

Structure (SMILES): CCC(Oc1cc(/C=C2\SC(=O)N(C)C2=O)c(Br)c(F)c1O)c1cnc(N)nc1 (stereo not given)
- IC50 (Cyclic GMP-AMP synthase [1]): ≤ 0.5 µM
- IC50 (Cyclic GMP-AMP synthase [2]): 2.5 to 10 µM
- IC50 (Cyclic GMP-AMP synthase [3]): ≥ 10 µM

Structure (SMILES): CC(C)n1ccc(COc2cc(/C=C3\SC(=O)N(C)C3=O)c(Br)cc2O)cc1=O
- IC50 (Cyclic GMP-AMP synthase [1]): ≥ 10 µM
- IC50 (Cyclic GMP-AMP synthase [2]): 2.5 to 10 µM
- IC50 (Cyclic GMP-AMP synthase [3]): ≥ 10 µM

Structure (SMILES): CN1C(=O)S/C(=C\c2cc(OCc3cnc(NCc4cccnc4)nc3)c(O)cc2Br)C1=O
- IC50 (Cyclic GMP-AMP synthase [1]): ≤ 0.5 µM
- IC50 (Cyclic GMP-AMP synthase [2]): 2.5 to 10 µM
- IC50 (Cyclic GMP-AMP synthase [3]): ≥ 10 µM

Structure (SMILES): COc1cc(/C=C2\SC(=O)N(C)C2=O)c(I)cc1O
- IC50 (Cyclic GMP-AMP synthase [1]): ≤ 0.5 µM
- IC50 (Cyclic GMP-AMP synthase [2]): 2.5 to 10 µM
- IC50 (Cyclic GMP-AMP synthase [3]): ≥ 10 µM

Structure (SMILES): O=C1/C(=C/c2cc(OCc3cncnc3)c(O)cc2Br)Sc2ncccc21
- IC50 (Cyclic GMP-AMP synthase [1]): ≤ 0.5 µM
- IC50 (Cyclic GMP-AMP synthase [2]): 2.5 to 10 µM
- IC50 (Cyclic GMP-AMP synthase [3]): ≥ 10 µM

Structure (SMILES): CN1C(=O)S/C(=C\c2cc(OCc3cnc4ccccc4c3)c(O)cc2Br)C1=O
- IC50 (Cyclic GMP-AMP synthase [1]): ≥ 10 µM
- IC50 (Cyclic GMP-AMP synthase [2]): 2.5 to 10 µM
- IC50 (Cyclic GMP-AMP synthase [3]): ≥ 10 µM

Structure (SMILES): CN1C(=O)S/C(=C\c2cc(OCc3cn[nH]c3)c(O)cc2Br)C1=O
- IC50 (Cyclic GMP-AMP synthase [1]): ≤ 0.5 µM
- IC50 (Cyclic GMP-AMP synthase [2]): ≤ 2.5 µM
- IC50 (Cyclic GMP-AMP synthase [3]): ≥ 10 µM

Structure (SMILES): CN1C(=O)S/C(=C\c2cc3c(Cc4cnc(N)nc4)c[nH]c3c(F)c2Br)C1=O
- IC50 (Cyclic GMP-AMP synthase [1]): ≤ 0.5 µM
- IC50 (Cyclic GMP-AMP synthase [2]): ≥ 10 µM
- IC50 (Cyclic GMP-AMP synthase [3]): ≥ 10 µM

Structure (SMILES): O=C1/C(=C/c2cc(OCc3cnc(NCc4ccccn4)nc3)c(O)c(F)c2Br)Sc2ncccc21
- IC50 (Cyclic GMP-AMP synthase [1]): ≤ 0.5 µM
- IC50 (Cyclic GMP-AMP synthase [2]): ≥ 10 µM
- IC50 (Cyclic GMP-AMP synthase [3]): ≥ 10 µM

Structure (SMILES): CNc1ncc(COc2cc(/C=C3\Sc4ncccc4C3=O)c(Br)c(F)c2O)cn1
- IC50 (Cyclic GMP-AMP synthase [1]): ≤ 0.5 µM
- IC50 (Cyclic GMP-AMP synthase [2]): 2.5 to 10 µM
- IC50 (Cyclic GMP-AMP synthase [3]): ≥ 10 µM

Structure (SMILES): C[S+]([O-])c1ncc(COc2cc(/C=C3\Sc4ncccc4C3=O)c(Br)cc2O)cn1 (stereo not given)
- IC50 (Cyclic GMP-AMP synthase [1]): ≤ 0.5 µM
- IC50 (Cyclic GMP-AMP synthase [2]): ≤ 2.5 µM
- IC50 (Cyclic GMP-AMP synthase [3]): 2.5 to 10 µM

Structure (SMILES): CC(Oc1cc(/C=C2\Sc3ncccc3C2=O)c(Br)cc1O)c1cnc(N)nc1 (stereo not given)
- IC50 (Cyclic GMP-AMP synthase [1]): ≤ 0.5 µM
- IC50 (Cyclic GMP-AMP synthase [2]): ≤ 2.5 µM
- IC50 (Cyclic GMP-AMP synthase [3]): ≥ 10 µM

Structure (SMILES): CN1C(=O)S/C(=C\c2cc(OCc3cnc(NC4CC4)nc3)c(O)cc2Br)C1=O
- IC50 (Cyclic GMP-AMP synthase [1]): 0.5 to 10 µM
- IC50 (Cyclic GMP-AMP synthase [2]): ≤ 2.5 µM
- IC50 (Cyclic GMP-AMP synthase [3]): ≥ 10 µM
